In the supplement of paper PMC13380429:
± gives the standard deviation of the averaged measurements.

Tests used:
Details in all cases: 72 h
Caco-2 [1] = assay: relative viability EC50 (midpoint between 100% and the lowest measured viability); higher = less toxic
Vero E6 [2] = assay: as above
U2OS [3] = assay: as above
HepG2 [4] = assay: as above
Calu-3 [5] = assay: as above
Caco-2 [6] = assay: drug sensitivity score (DSS) for viability; higher = more toxic; extreme values may be limits of the assay
Vero E6 [7] = assay: as above
U2OS [8] = assay: as above
HepG2 [9] = assay: as above
Calu-3 [10] = assay: as above
Caco-2 [11] = assay: cell viability relative to DMSO; higher = less toxic
Vero E6 [12] = assay: as above
U2OS [13] = assay: as above
HepG2 [14] = assay: as above
Calu-3 [15] = assay: as above

Structure (SMILES)	relative viability EC50 (Caco-2 [1])	relative viability EC50 (Vero E6 [2])	relative viability EC50 (U2OS [3])	relative viability EC50 (HepG2 [4])	relative viability EC50 (Calu-3 [5])	drug sensitivity score (Caco-2 [6])	drug sensitivity score (Vero E6 [7])	drug sensitivity score (U2OS [8])	drug sensitivity score (HepG2 [9])	drug sensitivity score (Calu-3 [10])	cell viability (Caco-2 [11]; 1 nM)	cell viability (Caco-2 [11]; 10 nM)	cell viability (Caco-2 [11]; 100 nM)	cell viability (Caco-2 [11]; 1000 nM)	cell viability (Caco-2 [11]; 10000 nM)	cell viability (Vero E6 [12]; 1 nM)	cell viability (Vero E6 [12]; 10 nM)	cell viability (Vero E6 [12]; 100 nM)	cell viability (Vero E6 [12]; 1000 nM)	cell viability (Vero E6 [12]; 10000 nM)	cell viability (U2OS [13]; 1 nM)	cell viability (U2OS [13]; 10 nM)	cell viability (U2OS [13]; 100 nM)	cell viability (U2OS [13]; 1000 nM)	cell viability (U2OS [13]; 10000 nM)	cell viability (HepG2 [14]; 1 nM)	cell viability (HepG2 [14]; 10 nM)	cell viability (HepG2 [14]; 100 nM)	cell viability (HepG2 [14]; 1000 nM)	cell viability (HepG2 [14]; 10000 nM)	cell viability (Calu-3 [15]; 1 nM)	cell viability (Calu-3 [15]; 10 nM)	cell viability (Calu-3 [15]; 100 nM)	cell viability (Calu-3 [15]; 1000 nM)	cell viability (Calu-3 [15]; 10000 nM)
CC(C)n1nc(-c2cc3cc(O)ccc3[nH]2)c2c(N)ncnc21 [PP242]	0.208 µM	1.26 µM	0.927 µM	0.652 µM	0.203 µM	13.1	8.7	9.8	10.8	16	104%	88.9%	80.4%	41.4%	31.3%	107%	105%	96.2%	67.9%	15.9%	99.2%	99%	96%	56.1%	16.4%	100%	121%	90.2%	50%	19.8%	107%	94.2%	79.6%	26.5%	20.1%
CC(C)C(=O)OC[C@H]1O[C@@H](n2ccc(N)nc2=O)[C@](C)(F)[C@@H]1OC(=O)C(C)C [mericitabine]	> 10 µM	> 10 µM	> 10 µM	> 10 µM	> 10 µM	0	0	0	0	0	93.9%	86.9%	96.3%	91.1%	102%	92.5%	97.6%	99.3%	93.6%	91.5%	97.1%	94%	98.6%	97%	97.4%	89.3%	99.3%	94.1%	102%	91.6%	110%	88.1%	108%	109%	106%
C=CC[N+]1([C@H]2C[C@H]3[C@@H]4CC[C@H]5C[C@H](O)[C@@H](N6CCOCC6)C[C@]5(C)[C@H]4CC[C@]3(C)[C@H]2OC(C)=O)CCCC1 [ROCURONIUM BROMIDE]	> 10 µM	> 10 µM	> 10 µM	> 10 µM	> 10 µM	0.2	0	0	0	0	104%	103%	107%	132%	79.8%	91%	95.1%	89.5%	88.5%	95.6%	106%	99.3%	103%	103%	108%	97.7%	113%	108%	111%	108%	98.1%	105%	107%	94.9%	105%
COc1cccc2cc(-c3nc([C@H]4CC[C@H](C(=O)O)CC4)n4ncnc(N)c34)[nH]c12 [OSI-027]	0.603 µM	1.33 µM	0.903 µM	0.693 µM	0.145 µM	9.9	6.2	9.7	9.9	15.9	98.5%	100%	86.4%	56.7%	26.3%	102%	103%	98.3%	80.1%	39.7%	92.5%	100%	92.3%	57.2%	17.2%	112%	106%	102%	48.8%	28.4%	92.4%	100%	70.6%	33.7%	26.3%
CNC(=O)[C@@H](Cc1ccccc1)N(C)C(=O)[C@@H](Cc1ccc2ccccc2c1)N(C)C(=O)/C=C/CC(C)(C)N [tabimorelin]	> 10 µM	> 10 µM	> 10 µM	> 10 µM	> 10 µM	0	0	0	0.6	0	99.8%	104%	103%	95.4%	92.3%	95.8%	102%	101%	102%	99.1%	99.9%	101%	96.8%	103%	98.3%	105%	96.5%	106%	87.3%	96.5%	96.4%	100%	100%	104%	88.2%
CCOc1cc(C=O)ccc1O [ethyl-vanillin]	> 10 µM	> 10 µM	> 10 µM	> 10 µM	> 10 µM	0	0	0	0	0	99.3%	92.5%	98.5%	78.4%	101%	106%	92.8%	107%	95.1%	91.6%	97.4%	102%	96.2%	101%	99.9%	117%	99.5%	96.2%	103%	97.1%	98.6%	108%	102%	97.5%	99.3%
Ic1cc(-c2ccccc2)ncn1 [4-iodo-6-phenylpyrimidine]	> 10 µM	> 10 µM	> 10 µM	> 10 µM	> 10 µM	0	0	0	0	0	93.8%	101%	104%	97.5%	98%	105%	102%	97.7%	105%	95.5%	102%	97.2%	102%	99.1%	102%	100%	107%	96.8%	105%	98.8%	100%	105%	105%	87.2%	104%
Oc1nc(O)c2cn[nH]c2n1 [oxypurinol]	> 10 µM	> 10 µM	> 10 µM	> 10 µM	> 10 µM	0	0	0	0	0	107%	100%	98%	97.7%	97.1%	96.1%	103%	98.5%	101%	100%	101%	102%	93.6%	99.5%	99.8%	108%	86.2%	104%	101%	96%	95.6%	108%	97.2%	107%	94.6%
CN(Cc1cccc(-c2ccccc2)c1)C(=O)Oc1ccc(-c2ccc(C(N)=O)cc2)cc1 [WWL-123]	> 10 µM	> 10 µM	> 10 µM	> 10 µM	> 10 µM	0.4	0	0	0	0	99.1%	95.4%	98.1%	91.8%	84.8%	101%	100%	101%	99.5%	98.3%	101%	98.7%	102%	98%	101%	95.9%	110%	108%	102%	100%	101%	99.7%	101%	105%	99.4%
O=C1CC(=O)c2c(Cl)c(Cl)c(Cl)c(Cl)c21 [TCID]	> 10 µM	> 10 µM	> 10 µM	> 10 µM	> 10 µM	0	0	0	0	0	120%	102%	98.3%	91.1%	95.6%	101%	99.1%	97%	101%	100%	101%	103%	106%	104%	94.6%	99.9%	101%	104%	107%	107%	88%	88.5%	91.7%	77.9%	89.2%
CCCn1cnc2c1c(=O)n(CCCCC(C)=O)c(=O)n2C [propentofylline]	> 10 µM	> 10 µM	> 10 µM	> 10 µM	> 10 µM	0	0	0	0	0	91.1%	97.5%	91.5%	102%	106%	92.4%	92.4%	92.1%	93.3%	106%	98.4%	98.6%	101%	101%	101%	98.6%	106%	103%	96.4%	104%	107%	90.8%	99%	94.8%	108%
CC(COc1ccccc1)N(CCCl)Cc1ccccc1 (stereo not given) [phenoxybenzamine]	> 10 µM	> 10 µM	> 10 µM	> 10 µM	> 10 µM	0.5	0	0	0.6	0	86.6%	92.7%	102%	95.9%	86%	102%	98.3%	101%	97.9%	94.3%	96.3%	102%	93.4%	114%	93.6%	101%	106%	88.7%	89.4%	96.5%	96.5%	109%	106%	101%	95.8%
COc1ccc(C2(O)CCC(N3CC[C@@H](NC(=O)CNC(=O)c4cccc(C(F)(F)F)c4)C3)CC2)cn1 (stereo not given in full)	> 10 µM	> 10 µM	> 10 µM	> 10 µM	> 10 µM	0	0	0	0	0	100 ± 2.3%	95.3 ± 5.2%	95.3 ± 2.9%	100 ± 2.4%	94.8 ± 5.4%	97.7 ± 1.4%	97.8 ± 5.8%	97.7 ± 1.3%	95.8 ± 1.9%	97.6 ± 3.8%	99.7 ± 2%	98.5 ± 1.3%	98.6 ± 2.7%	99.4 ± 0.14%	100 ± 4.2%	94.8 ± 12%	97.7 ± 1.6%	101 ± 8.1%	94.8 ± 8.5%	102 ± 8.6%	102 ± 13%	92.8 ± 6.5%	96.3 ± 4.9%	97.7 ± 4.2%	95.2 ± 9.2%
